Measurements published in article PMC12505967, “Inhibition of the assembly of Plasmodium Hsp70-1 and Hsp40 complex blocks DNA replication by destabilizing ribonucleotide reductase subunit-2” (mBio, 2025).

Assays:
PfHsp70-1 + PfYdj1 = target: T1, PfHsp70-1 + PfYdj1 (Plasmodium falciparum, UniProt Q8IB24); experiment: EnzChek phosphate ATPase assay; format: biochemical; details: inhibits PfYdj1-stimulated ATP hydrolysis; 1 and 20 µM compound (21 µM in figure legend); 50 µM ATP, 2 µM each protein, 2 mM MgCl2, pH 7.5, 37°C
T1 construct: gene PF3D7_0818900; both full length, N-terminal His6 tag (pET28a), E. coli, Ni-NTA; tags kept; with HSP40, subfamily A

PfHsp70-1 = target: T2, PfHsp70-1 (Plasmodium falciparum, UniProt Q8IB24); format: biochemical; details: basal ATPase without cochaperone; 50 µM ATP, 2 µM protein, 2 mM MgCl2, pH 7.5, 37°C
T2 construct: gene PF3D7_0818900; full length, N-terminal His6 tag (pET28a), E. coli Rosetta (DE3), Ni-NTA; tag kept

[1] = target: Recombinant PfHsp70-1 (His6-tagged, purified) (Plasmodium falciparum 3D7) (UniProt Q8IB24); details: scale: µM min^−1 per µM concentration of the enzyme

## CC1=C(C(=O)OCc2ccccc2)C(c2ccc(-c3ccccc3)cc2)NC(=O)N1CCCCCC(=O)O (stereo not drawn) [116-9e]
PfHsp70-1 + PfYdj1
  EnzChek phosphate ATPase assay: observed a reduced stimulation of PfYdj1-mediated ATP hydrolysis of PfHsp70-1 in a dose-dependent manner

## Nc1ncnc2c1ncn2[C@@H]1O[C@H](COP(=O)(O)OP(=O)(O)OP(=O)(O)O)[C@@H](O)[C@H]1O [ATP]
PfHsp70-1
  EnzChek phosphate ATPase assay: PfHsp70-1 showed a basal level of ATPase activity

B1: Recombinant PfSis1 (His6-tagged, purified) (natural protein)
chain: MGKDYYSILGVSRDCTTNDLKKAYRKLAMMWHPDKHNDEKSKKEAEEKFKNIAEAYDVLADEEKRKIYDTYGEEGLKGSIPTGGNTYVYSGVDPSELFSRIFGSDGQFSFTSTFDEDFSPFSTFVNMTSRKSRPSTTTNINTNNYNKPATYEVPLSLSLEELYSGCKKKLKITRKRFMGTKSYEDDNYVTIDVKAGWKDGTKITFYGEGDQLSPMAQPGDLVFKVKTKTHDRFLRDANHLIYKCPVPLDKALTGFQFIVKSLDNRDINVRVDDIVTPKSRKIVAKEGMPSSKYPSMKGDLIVEFDIVFPKSLTSEKKKIIRETLANTF
[1]
  PfSis1-induced rate of ATP hydrolysis of PfHsp70-1 without and with 1 µM and 20 µM 116-9e (0.37 without, 0.322 at 1 µM, 0.087 at 20 µM): 0.37
